# Measurements published in US20140343095A1, “Methods of Diagnosing and Treating Multiple Sclerosis” (The Brigham and Women's Hospital, Inc., priority 2009, published 2014).
# Assays:
# TLR2 = assay: PARP-1 activity in HEK-293 cells transfected or not with TLR2; type: cell-based, human
# Text: FIGS. 6A-B are bar graphs showing that PARP-1 activation by 15-HC is mediated by TLR2 A. TLR2 blocking antibody abrogates PARP-1 activation by 15a-HC. 6A, a set of three bar graphs showing PARP-1 activity in microglia, macrophages or astrocytes activated with 15-HC in the presence of blocking antibodies to TLR2 or TLR4, or isotype controls (Mean±SEM). 6B, a bar graph showing PARP-1 activity in HEK-293 cells transfected or not with a plasmid coding for TLR2 and activated with 15-HC (Mean±SEM).
# PARP-1 = PARP-1 (Homo sapiens, UniProt P09874); assay: PARP-1 activity in a cell-free system with oxysterol-pretreated DNA; type: biochemical
# Method: FIGS. 4A-D show the results of activation of microglia, macrophages and astrocytes by 15-HC. 4A, a bar graph showing PARP-1 activity in a cell-free system where recombinant PARP-1 was incubated with DNA which as been pretreated with 15-HC or 7-KC. Non-pretreated DNA was used as a negative control and ssb-DNA as a positive control. Data is shown as Mean±SEM. 4B, a pair of bar graphs showing PARP-1 activity measured in microglia, macrophages or astrocytes incubated with 15-HC or 7-KC. The data is shown as the fold of change between vehicle and lipid-treated cells (Mean±SEM). 4C, a pair of bar graphs showing percent inhibition of PARP-1 activity in microglia, macrophages or astrocytes activated with 15-HC or 7-KC […] in the presence of 5-AIQ. 4D, a table showing levels of TNF-α, CCL-2 and NO secretion by 15-HC or 7-KC treated microglia, macrophages or astrocytes (Mean±SEM).
# Thus, the effect of 15-HC on PARP-1 activity was investigated using an in vitro system.
# [1] = test system: TLR signaling proteins (TAK1, IRAK, Akt, p38-MAPK, PyK2, PKC, PI3K, ERK1/2); assay: Reverse protein arrays / western blot of signaling after 15-HC; type: cell-based, mouse; details: microglia or macrophage cells, 1 μg/ml 15-HC
# Method: 5A, a bar graph showing the time course of microglial PARP-1 activation by 15-oxysterols or 7-KC. PARP-1 activity is shown as Mean±SEM. 5B, a set of eight bar graphs showing signaling pathways activated by 15-HC. Microglial cells were stimulated with 15-HC and lysed at 1, 5, and 15 minutes. Signal transduction arrays were made with the lysates and probed with phospho-specific antibodies. 15a-HC increases the phosphorylation of TAK1 (top right), IRAK (top left), Akt (second row, left), p38 MAPK (second row, right), Pyk2 (third row, left), PKC (third row, right), PI3K (bottom row, left), and Erk1/2 (bottom row, right). (Mean±SEM) 5C, a bar graph showing activation of microglial PARP-1 by 15-HC in the presence of kinase inhibitors (Mean±SEM). […]
# FIG. 8 is a set of eight pairs of bolts and bar graphs showing blockade of 15-HC triggered signaling pathways with blocking antibodies to TLR2. Microglial cells were incubated with […] of TLR2 blocking antibody or isotype control 45 minutes prior the addition of 15-HC to the medium and signal transduction events were analyzed by western blot. […]
# The C8B4 microglial cell line, C8-D1A astrocytes and Raw 264.7 macrophages were purchased from ATCC (Manassas, Va., USA). […] Slides were then probed, processed and analyzed as previously described (Chan et al., Nat Med 10, 1390-1396 (2004)).
# Erk / PARP-1 interaction = assay: Co-immunoprecipitation of ERK and PARP-1; type: cell-based, mouse; details: microglia and macrophages activated with 15-HC
# Method: 5A, a bar graph showing the time course of microglial PARP-1 activation by 15-oxysterols or 7-KC. PARP-1 activity is shown as Mean±SEM. 5B, a set of eight bar graphs showing signaling pathways activated by 15-HC. Microglial cells were stimulated with 15-HC and lysed at 1, 5, and 15 minutes. Signal transduction arrays were made with the lysates and probed with phospho-specific antibodies. 15a-HC increases the phosphorylation of TAK1 (top right), IRAK (top left), Akt (second row, left), p38 MAPK (second row, right), Pyk2 (third row, left), PKC (third row, right), PI3K (bottom row, left), and Erk1/2 (bottom row, right). (Mean±SEM) 5C, a bar graph showing activation of microglial PARP-1 by 15-HC in the presence of kinase inhibitors (Mean±SEM). 5D, an immunoblot and a bar graph showing the results of co-immunoprecipitaiton of ERK and PARP-1. Microglial cells were treated with 15-HC, lysed, immunoprecipitated with antibodies to phosphorylated Erk and then the pulled down material was probed with antibodies to PARP-1.
# Thus, co-immunoprecipitation studies were carried out to better characterize the mechanisms by which 15-HC activates PARP-1. Microglia and macrophages were activated with 15-HC, ERK-specific antibodies were used for immunoprecipitation, and the pulled down material was probed with antibodies to PARP-1.
# Sequence of PARP-1 (P09874 whole entry, species assumed): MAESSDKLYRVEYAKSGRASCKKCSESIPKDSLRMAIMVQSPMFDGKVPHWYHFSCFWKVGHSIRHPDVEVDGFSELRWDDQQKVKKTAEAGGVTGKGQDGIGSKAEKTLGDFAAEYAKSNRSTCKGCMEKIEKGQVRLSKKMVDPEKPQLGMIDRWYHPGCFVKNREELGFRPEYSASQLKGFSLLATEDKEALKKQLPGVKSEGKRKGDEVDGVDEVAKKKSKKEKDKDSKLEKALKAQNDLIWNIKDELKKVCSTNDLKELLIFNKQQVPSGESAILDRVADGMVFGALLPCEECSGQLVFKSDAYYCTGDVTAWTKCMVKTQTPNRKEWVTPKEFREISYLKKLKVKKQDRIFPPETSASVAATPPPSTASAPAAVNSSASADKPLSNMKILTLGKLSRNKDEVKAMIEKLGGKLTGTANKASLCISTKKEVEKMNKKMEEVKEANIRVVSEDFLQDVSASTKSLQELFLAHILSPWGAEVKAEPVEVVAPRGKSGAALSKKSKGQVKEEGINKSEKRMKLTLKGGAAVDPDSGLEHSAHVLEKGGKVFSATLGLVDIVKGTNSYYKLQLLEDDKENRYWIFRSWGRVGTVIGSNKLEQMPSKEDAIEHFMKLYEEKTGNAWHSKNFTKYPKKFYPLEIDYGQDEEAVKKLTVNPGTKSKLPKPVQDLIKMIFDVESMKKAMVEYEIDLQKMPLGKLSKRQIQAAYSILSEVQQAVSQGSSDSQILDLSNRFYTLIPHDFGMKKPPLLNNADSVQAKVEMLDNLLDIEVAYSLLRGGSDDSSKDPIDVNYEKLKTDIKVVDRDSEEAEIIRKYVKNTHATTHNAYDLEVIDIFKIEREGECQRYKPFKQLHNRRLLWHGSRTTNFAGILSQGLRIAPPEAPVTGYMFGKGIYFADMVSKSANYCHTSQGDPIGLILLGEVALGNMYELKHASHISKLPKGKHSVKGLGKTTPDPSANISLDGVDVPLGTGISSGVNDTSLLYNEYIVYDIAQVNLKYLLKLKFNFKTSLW
substance,measurement,setting,value
15-hydroxycholestene [15-HC],PARP-1 activity in HEK-293 cells transfected with TLR2,TLR2; transfected with a plasmid coding for TLR2,significant activation
same,PARP-1 activity in HEK-293 cells,"TLR2; untransfected, does not express TLR2",no significant effect
same,"PARP-1 activity, oxysterol alone",PARP-1; recombinant PARP-1 incubated with 15-HC alone,did not have a significant effect
same,"PARP-1 activity, DNA pre-incubated with oxysterol",PARP-1; recombinant PARP-1 plus DNA pretreated with 15-HC,levels comparable to those achieved with 7-KC or single strand break DNA
same,"phosphorylation of TAK1, IRAK, Akt, p38-MAPK, PyK2, PKC, PI3K and ERK1/2",[1],resulted in the phosphorylation
same,interaction of Erk with PARP-1,Erk / PARP-1 interaction,significant interaction
